Data reported in patent publication US8486995B2, “Acaricidal active substance combinations” (priority 2007, dated 2013).
In brackets after ≈: the same amount, converted by molar mass.

Columns and labels:
Type in all cases: in vivo
[1] = test system: common spider mite (Tetranychus urticae); assay: Tetranychus urticae test (OP-resistant; sprayed cucumbers); details: single active substance
Protocol: Tetranychus urticae Test (OP-Resistant)
(§1) Solvent: 7 parts by weight of dimethylformamide
(§2) Emulsifier: 2 parts by weight of alkylaryl polyglycol ether
(§3) To prepare a suitable preparation of active substance, 1 part by weight of active substance is mixed with the stated amounts of solvent and emulsifier, and the concentrate is diluted with water to the desired concentrations.
Cucumbers (Cucumis sativus) which are severely infected with the common spider mite (Tetranychus urticae) are sprayed with the active substance preparation at the desired concentration.
(§4) After the desired period of time, the destruction is determined in %. In this context, 100% means that all spider mites have been destroyed; 0% means that no spider mites have been destroyed.

[2] = test system: fruit tree spider mite (Panonychus ulmi); assay: Panonychus ulmi test (sprayed plum cuttings); details: single active substance
Protocol: as §1, §2, §3
Plum cuttings (Prunus domestica) which are infected with a mixed population of the fruit tree spider mite (Panonychus ulmi) are sprayed with the active substance preparation at the desired concentration.
as §4

[3] = test system: citrus spider mite (Panonychus citri); assay: Panonychus citri test (sprayed citrus plants); details: single active substance; for LC50: Panonychus citri, in Citrus x limon, 24 h, after 1 d, read-out: LC 50 in mg/l after 1d; for LC 50 in mg/l after 1d: Citrus limon
Protocol: as §1, §2, §3
Citrus plants (Citrus limon) which are infected with a mixed population of the citrus spider mite (Panonychus citri) are sprayed with the active substance preparation at the desired concentration.
as §4

COc1ccc(-c2ccccc2)cc1NNC(=O)OC(C)C [Bifenazate (II), bifenazate]
Destruction in % after 6d ([1]; 0.16 ppm, cucumbers): 15% | Destruction in % after 2d ([2]; 0.8 ppm, plum cuttings): 10%

CC(C)(C)c1ccc(CCOc2ncnc3ccccc23)cc1 [Fenazaquin (V), fenazaquin]
Destruction in % after 6d ([1]; 0.16 ppm, cucumbers): 0% | Destruction in % after 2d ([2]; 0.8 ppm, plum cuttings): 0% | LC50 [3]: 10.2 mg/L (≈ 33.3 µM)

CC(C)(C)c1ccc(CSc2cnn(C(C)(C)C)c(=O)c2Cl)cc1 [Pyridaben (IV), pyridaben]
LC 50 in mg/l after 1d [3]: 31.41 mg/L (≈ 86.1 µM)

CCC(C)(C)C(=O)OC1=C(c2ccc(Cl)cc2Cl)C(=O)OC12CCCCC2 [Spirodiclofen (I), Spirodiclofen]
Destruction in % after 6d ([1]; 0.032 ppm): 15% | Destruction in % after 6d ([1]; 0.16 ppm, cucumbers): 25% | Destruction in % after 2d ([2]; 0.8 ppm, plum cuttings): 5% | Destruction in % after 2d ([2]; 4 ppm): 15% | LC50 [3]: 12.3 mg/L (≈ 29.8 µM)

abamectin [Abamectin (VI)]
Destruction in % after 2d ([2]; 0.16 ppm): 0% | LC 50 in mg/l after 1d [3]: 1.0054 mg/L
